This is an account of results in article PMC10789823, “Synthesis, structural characterizations, in vitro biological evaluation and computational investigations of pyrazole derivatives as potential antidiabetic and antioxidant agents” (Scientific Reports, 2024).

Molecules are shown by their SMILES. “And” between values parts separate entries of the source, which are not always exact repeats. Identical values can stand only once. Like-named read-outs stand apart in the source and are kept apart here. Bounds are passed on as bounds.

The nature of assay [1]: Hydrogen peroxide activity (H2O2). As to conditions: mean ± standard deviation (n = 3). On the procedure:
(§1) The antioxidant activities of the title compound were determined in vitro by DPPH, ABTS, FRAP and hydrogen peroxide activity (H2O2) methods according to the procedures described in our previous works.
The hydrogen-donating activity, measured utilizing hydrogen peroxide radicals as the hydrogen acceptor was performed as previously described by (Muruhan et al., 2013) with minor modifications. Briefly a solution of hydrogen peroxide (40 mM) was prepared in phosphate buffer (pH 7.4). Different concentrations of the prepared compounds (62.5, 31.25, 15.62, 7.81 and 3.9 μM) were added to a hydrogen peroxide solution (0.6 mL, 40 mM). The absorbance of hydrogen peroxide at 230 nm was determined after 10 min against a blank solution containing phosphate buffer without hydrogen peroxide (or ascorbic acid as the control). The hydrogen peroxide percentage activity was then calculated using the following equation: […]

The nature of another assay: ABTS assay. The conditions noted are these: for IC50: called SC50, mean ± standard deviation (n = 3). On the procedure:
as §1
The ABTS assay was performed as previously described by (Tuberoso et al., 2013). ABTS+ radical was generated by oxidation of ABTS with potassium persulfate. The blue-green ABTS was produced through the reaction between 2 mM ABTS and 70 mM potassium persulfate in water. The mixture was left to stand in the dark for 12–16 h before use. The ABTS+ solution as diluted with methanol to an absorbance of 0.700 ± 0.005 at 734 nm. Then 2 mL of diluted ABTS solution were mixed with 100 μL of samples and absorbance was measured after 1 min incubation at room temperature. A standard curve was obtained by using Ascorbic acid as standard solution.

The nature of assay [2]: DPPH radical scavenging activity assay. As to conditions: called SC50; mean ± standard deviation (n = 3). On the procedure:
as §1
The DPPH radical activity assay was performed following (Huang et al., 2011) with minor modification. The method using the stable free radical 2,2-diphenyl-1-picrylhydrazyl (DPPH) is based upon the reduction of DPPH free radical. Different concentrations of the prepared compounds (500, 250, 125, 62.5, 31.25 µM) were tested. The DPPH solution was prepared by dissolving 3,9mg of DPPH in 50 mL of the methanol. Then, 50µL of each concentration was added to 1,2ml of methanol and 250µL of the prepared DPPH solution […]. The reaction mixture incubated in the dark for 30 min. The control was prepared by adding 1,25 mL of methanol to 250 µL of DPPH. Ascorbic acid was used as the standard. The absorbances of solutions were spectrophotometrically examined at 517 nm. The radical activity is expressed as inhibition ratio of initial concentration of DPPH radical and is calculated according to the formula: […]
Where AbsDPPH is the absorbance of DPPH radical and Abssample is the absorbance in the presence of sample.
On the technique in general: The DPPH test is a chemical assay of radical scavenging.

Assay [3] in a line: Ferric reducing power assay (FRAP). As to conditions: mean ± standard deviation (n = 3). As to the method: as §1
The ferric ion (Fe^3+) reducing power assay was performed as previously described by (Amarowicz et al., 2004) with minor modifications. Briefly, 1 mL of the samples were mixed with 2.5 mL of 0.2 M sodium phosphate buffer (pH 6.6) and 2.5 mL of 1% potassium ferricyanide. The mixtures were incubated in a […] water bath at 50 °C for 20 min. Then, 2.5 mL of 10% trichloroacetic acid was added and centrifuged at 3000 rpm for 10 min. Finally, 2.5 mL of the supernatant were mixed with 2.5 mL distilled water and 0.5 mL FeCl3 solution (0.1%, w/v). The absorbance was measured at 700 nm and the results were expressed as IC50.

In assay [4] the target is α-glucosidase from Saccharomyces cerevisiae (Saccharomyces cerevisiae, UniProt P53341). The assay is described as follows: biochemical. As to the method:
(§2) The α-glucosidase and α-amylase inhibitory activities of compounds Pyz-1 and Pyz-2 were determined using the method described in our previous works[48],[49].
(§3) All other reagents and standards were of analytical reagent grade.
The α-glucosidase inhibitory activity was performed by using (ρ-nitrophenyl-α-D-glucopyranoside) as a substrate according to the method described by (Kee et al., 2013),with minor modifications. The α-glucosidase method is based on the inhibition of the enzyme. α-glucosidase, which hydrolyses (4-Nitrophenyl-α-d-glucopyranoside) to α-d-glucopyranose and P-nitrophenol of yellow color. The target compound was dissolved in DMSO and all the evaluated samples were dissolved in tampon phosphate at a series of concentrations. A mixture of 150 µl of the sample and 100 µl of PBS (pH = 6.7) containing the α- glucosidase enzyme solution (0.1U/ml) was incubated at 37 ° C for 10 min, after incubation, 200µl of pNPG (1 mM) was added to the mixture. The mixtures were incubated at 37 °C for 30 min. Then 1 ml Na2CO3 (0.1 M) was added to stop the reaction. The absorbance was measured at 405 nm. The results were expressed in percentage of inhibition according to the following formula: […]
The same reaction mixture without α-glucosidase was used as negative control.

Assay [5] concerns the target α-amylase from Bacillus licheniformis (Bacillus licheniformis, UniProt P06278). Kind of assay: biochemical. As to conditions: mean ± standard deviation (n = 3). As to the method: as §2, §3
The α-amylase assay was performed by reacting various concentrations of compounds with α-amylase and starch solution by following the DNSA method with minor modifications (Hashim et al., 2013). The evaluated samples were dissolved in tampon phosphate with various concentrations. The sample solution (10μL) was mixed with 240μL (sodium phosphate buffer 0.02M pH6.9) containing α-amylase (240U/mL), and incubated at 37°C for 20 min. After pre-incubation, 250 µL of 1% starch solution were added to each tube and incubated for 15 min. 1ml of dinitrosalicylic acid was added to stop the reaction, then incubate the solution in a water bath at 90°C for 10 min. The mixture was diluted with 1 mL deionized water and the absorbance (Abs) was measured at 540 nm.
The IC50 values were determined by the percentage of inhibitions at different concentrations.

For a further assay, the target named is xanthine oxidase (Homo sapiens, UniProt P47989). The assay is described as follows: Xanthine oxidase inhibition assay (XO). As to conditions: mean ± standard deviation (n = 3). It is filed as biochemical. On the procedure: The xanthine oxidase inhibitory activity of Pyz-1 and Pyz-2 was performed following the method described by Kostić et al.[50], with minor modifications. The samples were prepared at series of concentrations. 1.95 ml of 5 mM phosphate buffer pH 7.5 and 50 µl of enzyme solution was added to the mixtures. After pre-incubation at 25 °C for 15 min. 1 ml of substrate was added.
Chain of xanthine oxidase (P47989 whole entry, species assumed): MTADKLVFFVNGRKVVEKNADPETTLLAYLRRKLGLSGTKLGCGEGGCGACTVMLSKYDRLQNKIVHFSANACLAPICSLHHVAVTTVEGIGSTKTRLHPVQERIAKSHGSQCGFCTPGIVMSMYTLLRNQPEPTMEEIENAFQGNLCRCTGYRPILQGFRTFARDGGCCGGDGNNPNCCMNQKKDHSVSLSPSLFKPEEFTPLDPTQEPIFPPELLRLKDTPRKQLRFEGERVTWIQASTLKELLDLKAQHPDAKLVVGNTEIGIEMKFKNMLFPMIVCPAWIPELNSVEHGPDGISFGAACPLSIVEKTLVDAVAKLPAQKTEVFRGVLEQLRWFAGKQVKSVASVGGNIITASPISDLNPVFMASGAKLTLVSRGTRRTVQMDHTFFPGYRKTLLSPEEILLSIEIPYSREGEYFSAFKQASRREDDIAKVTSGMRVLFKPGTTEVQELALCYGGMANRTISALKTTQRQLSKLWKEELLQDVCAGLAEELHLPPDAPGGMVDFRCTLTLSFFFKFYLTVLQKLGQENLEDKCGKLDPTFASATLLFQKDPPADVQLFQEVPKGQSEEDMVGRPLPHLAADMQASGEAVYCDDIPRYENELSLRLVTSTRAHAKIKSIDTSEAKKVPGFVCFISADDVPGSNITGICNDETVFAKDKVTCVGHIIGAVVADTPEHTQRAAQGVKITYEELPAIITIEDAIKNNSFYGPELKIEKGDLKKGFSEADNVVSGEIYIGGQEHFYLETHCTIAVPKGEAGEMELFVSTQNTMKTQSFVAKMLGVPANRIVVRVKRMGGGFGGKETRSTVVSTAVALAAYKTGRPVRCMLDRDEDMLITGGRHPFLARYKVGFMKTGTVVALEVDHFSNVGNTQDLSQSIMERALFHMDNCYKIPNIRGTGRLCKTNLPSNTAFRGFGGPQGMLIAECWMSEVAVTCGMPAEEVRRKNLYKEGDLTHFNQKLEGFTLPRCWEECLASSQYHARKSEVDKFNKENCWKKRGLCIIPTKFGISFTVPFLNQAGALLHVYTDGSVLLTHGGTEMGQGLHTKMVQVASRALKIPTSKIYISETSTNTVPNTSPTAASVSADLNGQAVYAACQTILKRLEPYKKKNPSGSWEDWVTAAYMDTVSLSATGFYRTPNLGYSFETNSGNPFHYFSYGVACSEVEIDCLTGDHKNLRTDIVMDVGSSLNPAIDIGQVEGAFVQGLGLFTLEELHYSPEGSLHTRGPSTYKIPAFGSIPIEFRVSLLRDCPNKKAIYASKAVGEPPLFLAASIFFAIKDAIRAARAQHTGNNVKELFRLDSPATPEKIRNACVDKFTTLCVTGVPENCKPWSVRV

[6] abbreviates: mean ± standard deviation (n = 3), read-out: IC50 α-Glucosidase.

Chain of α-glucosidase from Saccharomyces cerevisiae (P53341 whole entry): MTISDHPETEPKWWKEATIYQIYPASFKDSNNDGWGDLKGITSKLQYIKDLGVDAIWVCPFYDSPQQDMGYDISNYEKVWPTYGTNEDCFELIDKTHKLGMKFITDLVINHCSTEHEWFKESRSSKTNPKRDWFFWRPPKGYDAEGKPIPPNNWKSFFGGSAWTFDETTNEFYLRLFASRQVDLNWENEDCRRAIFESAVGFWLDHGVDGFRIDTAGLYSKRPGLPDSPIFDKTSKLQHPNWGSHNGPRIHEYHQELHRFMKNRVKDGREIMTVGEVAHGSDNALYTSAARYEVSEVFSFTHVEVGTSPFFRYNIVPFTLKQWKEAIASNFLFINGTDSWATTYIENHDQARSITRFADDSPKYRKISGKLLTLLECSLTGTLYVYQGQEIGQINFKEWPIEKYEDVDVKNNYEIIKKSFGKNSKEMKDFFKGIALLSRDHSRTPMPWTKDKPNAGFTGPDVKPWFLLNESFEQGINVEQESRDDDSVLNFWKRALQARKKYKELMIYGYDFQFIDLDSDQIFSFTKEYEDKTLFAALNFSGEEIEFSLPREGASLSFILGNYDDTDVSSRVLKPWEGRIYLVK
Chain of α-amylase from Bacillus licheniformis (P06278 30-512): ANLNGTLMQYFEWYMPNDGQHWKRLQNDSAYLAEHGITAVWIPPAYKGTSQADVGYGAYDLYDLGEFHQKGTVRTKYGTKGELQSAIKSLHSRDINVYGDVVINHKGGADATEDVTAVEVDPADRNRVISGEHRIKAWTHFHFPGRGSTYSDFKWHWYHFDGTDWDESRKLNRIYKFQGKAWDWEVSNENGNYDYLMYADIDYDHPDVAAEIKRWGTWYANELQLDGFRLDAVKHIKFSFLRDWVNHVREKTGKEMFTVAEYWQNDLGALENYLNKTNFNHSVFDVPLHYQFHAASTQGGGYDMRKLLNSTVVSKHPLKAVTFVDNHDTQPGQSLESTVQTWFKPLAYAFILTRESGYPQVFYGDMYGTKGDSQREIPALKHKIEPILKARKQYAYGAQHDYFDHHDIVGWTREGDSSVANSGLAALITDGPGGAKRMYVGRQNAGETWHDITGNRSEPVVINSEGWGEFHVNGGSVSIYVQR

What is called IC50 is the concentration needed to halve the response being measured. With `O=C1O[C@H]([C@@H](O)CO)C(O)=C1O` [Ascorbic acid, reference compound], the IC50 in assay [1] came out at 7.45 ± 1.11 µM; in the assay “ABTS assay”, 22.5 ± 0.59 µM; in assay [2], 78.11 ± 0.68 µM; in assay [3], 88.12 ± 0.23 µM.

With `Cc1cc(C(=O)NN)[nH]n1` [Compound 1, 5-methyl-1H-pyrazole-3-carbohydrazide], the figures for the IC50 in assay [4] (setting [6]) and in assay [5] were 279 ± 4.03 µM and > 500 µM, respectively.

For the compound `Cc1cc(C(=O)NNC(=O)Nc2ccccc2)n[nH]1` [Pyz-1, 2-(5-methyl-1H-pyrazole-3-carbonyl)-N-phenylhydrazine-1-carboxamide], the IC50 in assay [1] is 31.5 ± 0.92 µM; in the assay “ABTS assay” it was 79.77 ± 0.45 µM; in assay [2], 238.5 ± 1.12 µM; in assay [3], 100.2 ± 0.79 µM; in assay [4] it was 75.62 ± 0.56 µM; against xanthine oxidase, 24.3 ± 0.78 µM. Moreover, the IC50 in assay [5] is 120 µM and 119 µM.

For `Cc1cc(-c2nnc(S)n2N)n[nH]1` [Pyz-2, 4-amino-5-(5-methyl-1H-pyrazol-3-yl)-4H-1,2,4-triazole-3-thiol], the IC50 came out at 24.8 ± 1.23 µM in assay [1]; 20.5 ± 0.87 µM in the assay “ABTS assay”; 139 ± 1.45 µM in assay [2]; 62.62 ± 0.49 µM in assay [3]; 95.85 ± 0.92 µM in assay [4] (setting [6]); 10.8 ± 0.54 µM at xanthine oxidase. Also, in assay [5], the IC50 is 119 µM and 120 µM. Moreover, the “ABTS scavenging activity relative to Pyz-1” value in “ABTS assay” (ratio of SC50 values, versus Pyz-1) turned out to be 3.88 fold.
